Experimental data published in PubChem BioAssay (NCI).
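Interpolation was linear, between the two tested concentrations surrounding the appropriate level; five concentrations were tested over 48 hours in 96-well plates. At the GI50, growth is halved. TGI denotes the concentration required for complete inhibition of growth.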

Assays:
Test in all cases: DTP human tumour cell line panel, 48 h
[1] = system: 786-0 renal
[2] = system: A549 NSCLC
[3] = system: ACHN renal
[4] = system: CAKI-1 renal
[5] = system: HCT-15 colon
[6] = system: HOP-92 NSCLC
[7] = system: LOX IMVI melanoma
[8] = system: M14 melanoma
[9] = system: MCF7 breast
[10] = system: NCI-H23 lung
[11] = system: NCI/ADR-RES ovarian
[12] = system: OVCAR-5 ovarian
[13] = system: SF-295 CNS
[14] = system: SF-539 CNS
[15] = system: SN12C renal
[16] = system: SNB-75 CNS
[17] = system: SW-620 colon
[18] = system: UACC-257 melanoma
[19] = system: UO-31 renal

| Structure (SMILES) | TGI [1] [µM] | TGI [2] [µM] | TGI [3] [µM] | TGI [4] [µM] | TGI [5] [µM] | TGI [6] [µM] | TGI [7] [µM] | TGI [8] [µM] | TGI [9] [µM] | TGI [10] [µM] | TGI [11] [µM] | TGI [12] [µM] | TGI [13] [µM] | TGI [14] [µM] | TGI [15] [µM] | TGI [16] [µM] | TGI [17] [µM] | TGI [18] [µM] | TGI [19] [µM] | GI50 [18] [µM] |
| --- | --- | --- | --- | --- | --- | --- | --- | --- | --- | --- | --- | --- | --- | --- | --- | --- | --- | --- | --- | --- |
| COc1cc2cc(C(=O)N3CC(CCl)c4ccccc43)[nH]c2c(OC)c1OC (stereo not drawn) | > 100 | > 100 | > 100 | > 100 | > 100 | > 100 | > 100 | > 100 | > 100 | > 100 | > 100 | > 100 | > 100 | > 100 | 55.2 | > 100 | > 100 | > 100 | > 100 | – |
| C=C1C(=O)O[C@H]2[C@H]1CC(=O)/C(C)=C/CC[C@@]1(C)O[C@@H]21 | 1.53 | 27.9 | 1.44 | 1.28 | 1.56 | 1.65 | 1.47 | 1.57 | 1.99 | 4.03 | 10.8 | 6.87 | 31.6 | 4.6 | 3.93 | 31.6 | 0.768 | 5.57 | 2.29 | 2 |
| O=C(c1ccccc1)c1sc2c(=O)c(C(=O)c3ccccc3)c(C(=O)c3ccccc3)sc2c(=O)c1C(=O)c1ccccc1 | > 100 | > 100 | > 100 | 34.5 | > 100 | > 100 | > 100 | > 100 | > 100 | > 100 | 74.9 | > 100 | > 100 | 51.1 | > 100 | 68 | > 100 | > 100 | 22.6 | – |
